US11098061B2 (Celgene CAR LLC, priority 2013, dated 2021)

Columns and labels:
[1] = target: p38a activated, mitogen-activated protein kinase-activated protein kinase 2 (MAPKAP-K2 or MK-2) enzyme (Homo sapiens (Human), UniProt P49137); test: MK2 Omnia continuous-read kinase assay for compound potency; assay type: biochemical; details: [MK-2]=0.4 nM, [ATP]=1.0 mM, [ST3-Sox]=10 μM
Excerpt: The protocol below describes a continuous-read kinase assay optimized to measure potency of compounds against p38a activated, mitogen-activated protein kinase-activated protein kinase 2 (MAPKAP-K2 or MK-2) enzyme. The mechanics of the assay platform are best described by the vendor (Invitrogen, Carlsbad, Calif.) on their website at the following URL: invitrogen.com/search/global/searchAction. action?resultPage=1 &resultsPerPage=15 &query=om nia&personaFilterTerm=Support+%26+Troubleshoot
Kinase reactions were started with the addition of 40 μL of MK-2 enzyme and monitored every 71 seconds for 30-240 minutes at λex360/λem485 in a Synergy^2, Synergy^4 or Synergy H^4 plate reader from BioTek (Winooski, Vt.). […] Initial velocity (0 minutes to +30 minutes) from each reaction was estimated from the slope of a plot of relative fluorescence units vs time (minutes) and normalized to the no enzyme and no inhibitor control groups for % Inhibition. The resulting % Inhibition values were then plotted against inhibitor concentration to estimate IC50 from log[Inhibitor] vs Response, Variable Slope model in GraphPad Prism from GraphPad Software (San Diego, Calif.).
[MK-2]=0.4 nM, [ATP]=1.0 mM and [ST3-Sox]=10 μM (ATP ^appKM=8-10 μM)

[2] = target: MK2 (Homo sapiens (Human), UniProt P49137); test: MK2 modification assessment by whole protein mass spectrometry; assay type: binding; details: intact MK2, 60 min, 10-fold excess of compound to protein
Procedure: Modification of MK2 is measured by whole protein MS analysis. […] 5 μL aliquots of the samples were diluted with 15 μL of 0.2% TFA prior to micro C4 ZipTipping directly onto the MALDI target using sinapinic acid as the desorption matrix (10 mg/ml in 0.1% TFA:Acetonitrile 50:50). Analysis was performed on a AB Sciex 4800 MALDI TOF/TOF retro fitted with an HM2 detector (CovalX). Percent modification of target MK2 (i.e., the percent of total MK2 modified by the test compound) for each compound was calculated by subtracting the centroid mass of the compound treated MK2 from the centroid mass of the control MK2 and dividing that value with the mass of the compound.

Chain of MK2 (P49137 whole entry): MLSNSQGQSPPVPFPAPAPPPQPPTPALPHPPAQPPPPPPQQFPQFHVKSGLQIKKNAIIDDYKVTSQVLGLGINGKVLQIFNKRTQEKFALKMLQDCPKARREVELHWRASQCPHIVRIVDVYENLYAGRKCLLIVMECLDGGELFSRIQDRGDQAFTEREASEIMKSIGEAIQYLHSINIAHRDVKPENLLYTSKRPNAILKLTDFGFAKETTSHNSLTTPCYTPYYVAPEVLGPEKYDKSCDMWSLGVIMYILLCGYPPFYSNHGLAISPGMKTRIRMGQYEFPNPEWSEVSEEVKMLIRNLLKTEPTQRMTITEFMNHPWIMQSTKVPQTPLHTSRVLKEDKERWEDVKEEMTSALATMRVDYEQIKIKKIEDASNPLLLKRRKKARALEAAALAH
Chain of p38a activated, mitogen-activated protein kinase-activated protein kinase 2 (MAPKAP-K2 or MK-2) enzyme (P49137 whole entry): as above

| Structure (SMILES) | IC50 [1] | MK2 Mass Mod [2] |
| --- | --- | --- |
| C=CC(=O)Nc1ccccc1Nc1nccc(-c2cc3c([nH]2)C2(CCCNC2)CNC3=O)n1 (racemic) [Compound I-5, N-(2-((4-(4′-oxo-1′,4′,5′,6′-tetrahydrospiro[piperidine-3,7′-pyrrolo[3,2-c]pyridin]-2′-yl)pyrimidin-2-yl)amino)phenyl)acrylamide] | > 1000 nM | F (mass modification of 31-69%) |
| C=CC(=O)Nc1cc(-c2cc(-c3cc4c([nH]3)C3(CCCNC3)CNC4=O)ccn2)ccc1N1CCN(C)CC1 (racemic) [Compound I-10, N-(2-(4-methylpiperazin-1-yl)-5-(4-(4′-oxo-1′,4′,5′,6′-tetrahydrospiro[piperidine-3,7′-pyrrolo[3,2-c]pyridin]-2′-yl)pyridin-2-yl)phenyl)acrylamide] | < 100 nM | E (mass modification of ≥70%) |
| C=CC(=O)Nc1cc(C(=O)Nc2cc(-c3cc4c([nH]3)C3(CCCNC3)CNC4=O)ccn2)ccc1F (racemic) [Compound I-24, 3-acrylamido-4-fluoro-N-(4-(4′-oxo-1′,4′,5′,6′-tetrahydrospiro[piperidine-3,7′-pyrrolo[3,2-c]pyridin]-2′-yl)pyridin-2-yl)benzamide] | 101 to 500 nM | F (mass modification of 31-69%) |
| C=CC(=O)NC1CCCCC1NC(=O)c1ccc2cc3n(c2c1)CCNC3=O (racemic) [Compound V-10, Racemic N-((1S,2R)-2-acrylamidocyclohexyl)-1-oxo-1,2,3,4-tetrahydropyrazino[1,2-a]indole-7-carboxamide] | > 1000 nM | G (mass modification ≤30%) |
| C=CC(=O)N[C@H]1CCCC[C@H]1NC(=O)c1ccc2cc3n(c2c1)C1(CCC1)CNC3=O (racemic) [Compound V-46, Cis-N-(2-acrylamidocyclohexyl)-1′-oxo-2′,3′-dihydro-1′H-spiro[cyclobutane-1,4′-pyrazino[1,2-a]indole]-7′-carboxamide (racemic)] | > 1000 nM | G (mass modification ≤30%) |
| C=CC(=O)N[C@H]1COC[C@H]1NC(=O)c1ccc2cc3n(c2c1)C1(CCC1)CNC3=O (racemic) [Compound V-49, Cis-N-(4-acrylamidotetrahydrofuran-3-yl)-1′-oxo-2′,3′-dihydro-1′H-spiro[cyclobutane-1,4′-pyrazino[1,2-a]indole]-7′-carboxamide (racemic)] | > 1000 nM | G (mass modification ≤30%) |
| C=CC(=O)NC1CCCC1NC(=O)c1ccc2cc3n(c2c1)C1(CCC1)CNC3=O (racemic) [Compound V-55, N-cis-(2-acrylamidocyclopentyl)-1′-oxo-2′,3′-dihydro-1′H-spiro[cyclobutane-1,4′-pyrazino[1,2-a]indole]-7′-carboxamide (racemic)] | > 1000 nM | G (mass modification ≤30%) |
| C=CC(=O)NC1CCCCC1NC(=O)c1ccc2cc3n(c2c1)C1(CCC1)CNC3=O (racemic) [Compound V-64, trans-(2-acrylamidocyclohexyl)-1′-oxo-2′,3′-dihydro-1′H-spiro[cyclobutane-1,4′-pyrazino[1,2-a]indole]-7′-carboxamide (racemic)] | > 1000 nM | – |
| C=CC(=O)Nc1cc(NC(=O)c2ccc3cc4n(c3c2)CCNC4=O)ccc1N1CCN(CC)CC1 [Compound V-1, N-(3-acrylamido-4-(4-ethylpiperazin-1-yl)phenyl)-1-oxo-1,2,3,4-tetrahydropyrazino[1,2-a]indole-7-carboxamide] | 501 to 999 nM | E (mass modification of ≥70%) |
| C=CC(=O)N[C@H]1CN(C(=O)c2ccc3cc4n(c3c2)CCNC4=O)CC[C@H]1C [Compound V-2, N-((3R,4R)-4-methyl-1-(1-oxo-1,2,3,4-tetrahydropyrazino[1,2-a]indole-7-carbonyl)piperidin-3-yl)acrylamide] | > 1000 nM | G (mass modification ≤30%) |
| C=CC(=O)N1CCC[C@@H](NC(=O)c2ccc3cc4n(c3c2)CCNC4=O)C1 [Compound V-3, (R)—N-(1-acryloylpiperidin-3-yl)-1-oxo-1,2,3,4-tetrahydropyrazino[1,2-a]indole-7-carboxamide] | > 1000 nM | G (mass modification ≤30%) |
| CN(C)C/C=C/C(=O)N1CCOc2ccc(NC(=O)c3ccc4cc5n(c4c3)CCNC5=O)cc21 [Compound V-4, (E)-N-(4-(4-(dimethylamino)but-2-enoyl)-3,4-dihydro-2H-benzo[b][1,4]oxazin-6-yl)-1-oxo-1,2,3,4-tetrahydropyrazino[1,2-a]indole-7-carboxamide] | > 1000 nM | G (mass modification ≤30%) |
| CN(C)C/C=C/C(=O)Nc1ccccc1NC(=O)c1ccc2cc3n(c2c1)CCNC3=O [Compound V-5, (E)-N-(2-(4-(dimethylamino)but-2-enamido)phenyl)-1-oxo-1,2,3,4-tetrahydropyrazino[1,2-a]indole-7-carboxamide] | > 1000 nM | G (mass modification ≤30%) |
| C=CC(=O)Nc1cccc(NC(=O)c2ccc3cc4n(c3c2)CCNC4=O)c1 [Compound V-7, N-(3-acrylamidophenyl)-1-oxo-1,2,3,4-tetrahydropyrazino[1,2-a]indole-7-carboxamide] | > 1000 nM | F (mass modification of 31-69%) |
| C=CC(=O)Nc1ccccc1NC(=O)c1ccc2cc3n(c2c1)CCNC3=O [Compound V-8, N-(2-acrylamidophenyl)-1-oxo-1,2,3,4-tetrahydropyrazino[1,2-a]indole-7-carboxamide] | > 1000 nM | E (mass modification of ≥70%) |
| C=CC(=O)N1CCc2ccc(NC(=O)c3ccc4cc5n(c4c3)CCNC5=O)cc21 [Compound V-9, N-(1-acryloylindolin-6-yl)-1-oxo-1,2,3,4-tetrahydropyrazino[1,2-a]indole-7-carboxamide] | 101 to 500 nM | E (mass modification of ≥70%) |
| C=CC(=O)Nc1c(C)ccc2oc(-c3ccc4cc5n(c4c3)C3(CCC3)CNC5=O)nc12 [Compound V-12, N-(5-methyl-2-(1′-oxo-2′,3′-dihydro-1′H-spiro[cyclobutane-1,4′-pyrazino [1,2-a]indol]-7′-yl)benzo[d]oxazol-4-yl)acrylamide] | > 1000 nM | – |
| C=CC(=O)Nc1ccccc1NC(=O)c1ccc2cc3n(c2c1)C1(CCC1)CNC3=O [Compound V-14, N-(2-acrylamidophenyl)-1′-oxo-2′,3′-dihydro-1′H-spiro[cyclobutane-1,4′-pyrazino [1,2-a]indole]-7′-carboxamide] | > 1000 nM | E (mass modification of ≥70%) |
| C=CC(=O)Nc1cccc2oc(-c3ccc4cc5n(c4c3)CCNC5=O)nc12 [Compound V-31, N-(2-(1-oxo-1,2,3,4-tetrahydropyrazino[1,2-a]indol-7-yl)benzo[d]oxazol-4-yl)acrylamide] | 501 to 999 nM | E (mass modification of ≥70%) |
| C=CC(=O)NCc1csc(NC(=O)c2ccc3cc4n(c3c2)C2(CCC2)CNC4=O)n1 [Compound V-43, N-(4-(acrylamidomethyl)thiazol-2-yl)-1′-oxo-2′,3′-dihydro-1′H-spiro[cyclobutane-1,4′-pyrazino[1,2-a]indole]-7′-carboxamide] | > 1000 nM | G (mass modification ≤30%) |
| C=CC(=O)Nc1c(C)c(NC2CCCNC2)nc2ccnn12 (stereo not drawn) [IV-b-1, N-(6-methyl-5-(piperidin-3-ylamino)pyrazolo [1,5-a]pyrimidin-7-yl)acrylamide] | 101 to 500 nM | – |
| C=CC(=O)Nc1cc(-c2cc3c(cn2)CCc2c-3[nH]c3c2C(=O)NCC3)ccc1OCCCNC(=O)CCCC(=O)NCCCOCCOCCOCCCNC(=O)CCCC[C@H]1SC[C@H]2NC(=O)N[C@H]21 [Probe 1] | < 100 nM | – |
| C=CC(=O)Nc1cc(-c2cc3c(cn2)CCc2c-3[nH]c3c2C(=O)NCC3)ccc1OCCCNC(=O)CCCC(=O)NCCCOCCOCCOCCCNC(=O)CCCC[C@H]1SC[C@H]2NC(=O)N[C@H]21 [Probe 2, N1-(3-(2-acrylamido-4-(7-oxo-6,7,8,9,10,11-hexahydro-5H-pyrido[3′,4′:4,5]pyrrolo[2,3-f]isoquinolin-2-yl)phenoxy)propyl)-N5-(15-oxo-19-((3aR,4R,6aS)-2-oxohexahydro-1H-thieno[3,4-d]imidazol-4-yl)-4,7,10-trioxa-14-azanonadecyl)glutaramide] | < 100 nM | – |
| C=CC(=O)Nc1cc(-c2cc(-c3cc4n(c3)CCNC4=O)ccn2)ccc1OC [V-c-1, N-(2-methoxy-5-(4-(1-oxo-1,2,3,4-tetrahydropyrrolo[1,2-a]pyrazin-7-yl)pyridin-2-yl)phenyl)acrylamide] | – | F (mass modification of 31-69%) |
